# “And” between values parts separate entries of the source, which are not always exact repeats. Identical values can stand only once. “Also recorded” adds a separate entry of the source. Like-named read-outs stand apart in the source and are kept apart here.
# Columns and labels:
# α-syn fibrils [1] = molecular target: T1, α-syn fibrils (Homo sapiens, UniProt P37840); assay: biochemical
# Aβ1-42 fibrils [2] = molecular target: T2, Aβ1-42 fibrils (Homo sapiens, UniProt P05067); assay: biochemical
# T2 sequence (P05067 672-713 limits assumed): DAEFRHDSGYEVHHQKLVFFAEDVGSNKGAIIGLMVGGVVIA
# tau fibrils [3] = molecular target: T3, tau fibrils (Homo sapiens, UniProt P10636); assay: biochemical
# T3 sequence (P10636 560-692): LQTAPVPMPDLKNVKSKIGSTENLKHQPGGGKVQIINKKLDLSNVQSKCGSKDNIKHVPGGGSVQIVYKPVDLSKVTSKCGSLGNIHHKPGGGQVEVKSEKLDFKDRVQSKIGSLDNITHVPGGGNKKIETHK
# α-syn fibrils [4] = molecular target: T1, α-syn fibrils
# Aβ1-42 fibrils [5] = molecular target: T2, Aβ1-42 fibrils
# tau fibrils [6] = molecular target: T3, tau fibrils
# [7] = Stability of isomers in solution measured by HPLC; type: physicochemical; conditions: for time for isolated pure Z,E and E,E isomers to isomerize to a mixture: after HPLC separation of the isomers
# Lewy bodies = Lewy bodies (Homo sapiens, UniProt P37840); assay: Fluorescent staining of postmortem PD/DLB midbrain tissue; conditions: 5 μM compound, PD/DLB midbrain sections, fluorescence microscopy
# Aβ plaques = Aβ plaques (Homo sapiens, UniProt P05067); assay: Fluorescent staining of postmortem AD temporal lobe tissue; conditions: 5 μM compound, AD temporal lobe sections, fluorescence microscopy
# Chain of Aβ plaques (P05067 672-711 limits assumed): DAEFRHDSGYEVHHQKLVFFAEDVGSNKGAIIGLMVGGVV
Molecule,Ki (α-syn fibrils [1]),Ki (Aβ1-42 fibrils [2]),Ki (tau fibrils [3]),other results
"COc1ccc(CN2C(=O)C(=C/C=C/c3ccc(N(C)C)cc3)c3cccnc32)cc1 [Compound 32, 3-(3-(4-(Dimethylamino)phenyl)allylidene)-1-(4-methoxybenzyl)-1H-pyrrolo[2,3-b]pyridin-2(3H)-one]",29.8 ± 6.6 nM,107 ± 18.9 nM,204 ± 26.7 nM,
"CN(C)c1ccc(/C=C/C=C2C(=O)N(Cc3ccccc3)c3ccccc32)cc1 [Compound 26, 1-Benzyl-3-(3-(4-(dimethylamino)phenyl)allylidene)indolin-2-one]",40.9 ± 25.2 nM,358 ± 162 nM,374 ± 209 nM,
"CN(C)c1ccc(/C=C/C=C2C(=O)Nc3ncccc32)cc1 [Compound 21, 3-(3-(4-(Dimethylamino)phenyl)allylidene)-1H-pyrrolo[2,3-b]pyridin-2(3H)-one]",11.5 ± 2 nM,15.3 ± 5.5 nM,35.1 ± 12.3 nM,
"CCOC(=O)N1C(=O)C(=C/C=C/c2ccc(N(C)C)cc2)c2ccccc21 [Compound 30, Ethyl 3-(3-(4-(dimethylamino)phenyl)allylidene)-2-oxoindoline-1-carboxylate]",45.3 ± 9 nM,84 ± 35 nM,263 ± 110 nM,
"CN(C)c1ccc(/C=C/C=C2C(=O)Nc3ccc(O)cc32)cc1 [Compound 22, 3-(3-(4-(Dimethylamino)phenyl)allylidene)-5-hydroxyindolin-2-one]",54 ± 17.9 nM,37.1 ± 13.6 nM,48 ± 17 nM,
"COc1ccc(/C=C/C=C2C(=O)N(Cc3ccccc3)c3ccccc32)cc1 [Compound 24, 1-Benzyl-3-(3-(4-methoxyphenyl)allylidene)indolin-2-one]",72.5 ± 22.6 nM,741 ± 255 nM,718 ± 295 nM,
3-(3-(4-(Dimethylamino)phenyl)allylidene)-1-(pyridin-4-ylmethyl)indolin-2-one [Compound 29],,,,Ki (α-syn fibrils [4]): 92 ± 11.2 nM; Ki (Aβ1-42 fibrils [5]): 45.9 ± 19.4 nM; Ki (tau fibrils [6]): 188 ± 68 nM
"CN(C)c1ccc(/C=C/C=C2C(=O)N(Cc3ccccc3)c3ncccc32)cc1 [Compound 31, 1-Benzyl-3-(3-(4-(dimethylamino)phenyl)allylidene)-1H-pyrrolo[2,3-b]pyridin-2(3H)-one]",68.3 ± 31.2 nM,85.1 ± 23 nM,257 ± 117 nM,
"CN(C)c1ccc(/C=C/C=C2C(=O)N(Cc3ccc([N+](=O)[O-])cc3)c3ccccc32)cc1 [Compound 28, 3-(3-(4-(Dimethylamino)phenyl)allylidene)-1-(4-nitrobenzyl)indolin-2-one]",4 nM and 4.2 nM,92.4 ± 21.9 nM,90 ± 48.8 nM,
"CN(C)c1ccc(/C=C/C=C2C(=O)N(c3ccccc3)c3ccccc32)cc1 [Compound 36, 3-(3-(4-(Dimethylamino)phenyl)allylidene)-1-phenylindolin-2-one]",68.1 ± 33 nM,287 ± 142 nM,465 ± 94.6 nM,
"O=C1Nc2ccccc2/C1=C/C=C/c1ccc([N+](=O)[O-])cc1 [Compound 41a, (Z)-3-((E)-3-(4-Nitrophenyl)allylidene)indolin-2-one]",,,,"time stable in solution ([7]; CH2Cl2-MeOH (1:1), HPLC peak and retention time): ≥ 20 h"
"O=C1Nc2ccccc2/C1=C\C=C\c1ccc([N+](=O)[O-])cc1 [Compound 41b, (E)-3-((E)-3-(4-Nitrophenyl)allylidene)indolin-2-one]",,,,"isomerization to an un-identified isomer ([7]; CH2Cl2-MeOH (1:1), 20 h, HPLC): 33%"
"O=C1Nc2ccccc2C1=C/C=C/c1ccccc1 [Compound 18, 3-(3-Phenylallylidene)indolin-2-one]",206 nM and 207 nM,267 nM,522 nM,
"COc1ccc(/C=C/C=C2C(=O)Nc3ccccc32)cc1 [Compound 19, 3-(3-(4-Methoxyphenyl)allylidene)indolin-2-one]",62 nM and 61.1 nM,125 nM and 126 nM,169 ± 22.3 nM,
"Nc1ccc(/C=C/C=C2C(=O)Nc3ccccc32)cc1 [Compound 47, 3-(3-(4-Aminophenyl)allylidene)indolin-2-one]",44.8 ± 15.6 nM,50.8 ± 18.5 nM,38.3 ± 28.7 nM,
"CN(C)c1ccc(/C=C/C=C2C(=O)Nc3ccccc32)cc1 [Compound 20, 3-(3-(4-(Dimethylamino)phenyl)allylidene)indolin-2-one]",41 nM and 40.7 nM,27 nM and 27.6 nM,54 nM and 53.7 nM,"labeling of Lewy bodies (Lewy bodies): label both Lewy bodies and Aβ plaques; also recorded: high labeling of both Lewy Bodies and Aβ plaques; time for isolated pure Z,E and E,E isomers to isomerize to a mixture [7]: ≤ 20 min; labeling of Aβ plaques (Aβ plaques): label both Lewy bodies and Aβ plaques; also recorded: high labeling of both Lewy Bodies and Aβ plaques"
"COc1ccc(CN2C(=O)C(=C/C=C/c3ccc(N(C)C)cc3)c3ccccc32)cc1 [Compound 27, 3-(3-(4-(Dimethylamino)phenyl)allylidene)-1-(4-methoxybenzyl)indolin-2-one]",54.6 ± 11.4 nM,130 ± 41.4 nM,240 ± 158 nM,"time for isolated pure Z,E and E,E isomers to isomerize to a mixture [7]: ≤ 20 min"
"CN(C)c1ccc(/C=C/C=C2C(=O)N(C)c3ccccc32)cc1 [Compound 25, 3-(3-(4-(Dimethylamino)phenyl)allylidene)-1-methylindolin-2-one]",63.7 ± 29.6 nM,56 ± 14.8 nM,229 ± 121 nM,
3-(4-(Dimethylamino)benzylidene)-1-(pyridin-4-ylmethyl)indolin-2-one [Compound 11],,,,Ki (α-syn fibrils [4]): 150 ± 45.7 nM; Ki (Aβ1-42 fibrils [5]): 87.1 ± 34.1 nM; Ki (tau fibrils [6]): 364 ± 121 nM
"CN(C)c1ccc(/C=C/C=C2C(=O)N(Cc3ccc(N)cc3)c3ccccc32)cc1 [Compound 33, 1-(4-Aminobenzyl)-3-(3-(4-(dimethylamino)phenyl)allylidene)indolin-2-one]",43.6 ± 20 nM,98.9 ± 12.1 nM,131 ± 51.5 nM,
